Laboratory results taken from patent publication US20220330549A1, “USE OF N-BENZYLBENZAMIDE-BASED COMPOUND AS HERBICIDE” (Northwest A&F University, priority 2020, published 2022).

Columns and labels:
Format in all cases: in vivo
Humulus scandens [1] = test: Herbicidal activity test for indoor pre-emergence soil treatment; conditions: 150 g a.i./ha, visual inspection 21 days after treatment
Method: (§1) The herbicidal activity test for indoor pre-emergence soil treatment was performed with some of the N-benzylbenzamide-based compounds of general formula I or II with reference to the method of NY/T 1155.3-2006. Neutral sandy loam soil having an organic content of ≤2% was added to fill ⅘ of the pot, and the soil was completely moistened by infiltrating irrigation from the bottom of the pot. The seeds of the test weed were evenly spread on the soil surface, and then covered by 0.5 cm to 2.0 cm of soil depending on the seed size. Representative compounds in the examples were used to prepare emulsifiable concentrates (10%), and spray treatments to the soil were performed 24 hours after the sowing with the test agents diluted with water, at a spraying dosage of 150 g(a.i.)/ha. Then, the results were investigated by visual inspection 21 days after the treatments. The herbicidal activity of the agent was evaluated on a scale of 1-9 levels according to the symptoms and severity of damage to the test weeds.
(§2) Level 2: equivalent to 0 to 2.5% of the weed in the blank control area;
(§3) Level 3: equivalent to 2.6 to 5% of the weed in the blank control area;
(§4) Level 4: equivalent to 5.1 to 10% of the weed in the blank control area;
(§5) Level 5: equivalent to 10.1 to 15% of the weed in the blank control area;
(§6) Level 6: equivalent to 15.1 to 25% of the weed in the blank control area;
(§7) Level 7: equivalent to 25.1 to 35% of the weed in the blank control area;
(§8) Level 8: equivalent to 35.1 to 67.5% of the weed in the blank control area; and
(§9) Level 9: equivalent to 67.6 to 100% of the weed in the blank control area.

Amaranthus retroflexus [2] = test: Field test for weed control in a corn field; conditions: for Post-emergence weed control effect, Amaranthus retroflexus: 150 g a.i./ha, 30 days after treatment
Method: (§10) The weed control efficacy field test was performed in a corn field with some of the N-benzylbenzamide-based compounds of general formula I or II with reference to the method of GB/T 17980.42-2000. […] Spray treatments were performed in the stage where 2 leaves to 5 leaves were grown for the corns after the sowing. Representative compounds in the examples were used to prepare emulsifiable concentrates (10%), and spray treatments were performed with the concentrates in water at a dosage of 150 g(a.i.)/ha, and repeated 4 times for each treatment, and the area was 20 m^2. Oil dispersion with 25% of mesotrione was used as a control agent and applied at a dosage of 150 g(a.i.)/h. […] The herbicidal activities of the agents were evaluated on a scale of 1-9 levels according to the symptoms and severity of damage to the test weeds.
as §2, §3, §4, §5, §6, §7, §8, §9

green bristlegrass [3] = test: Field test for weed control in a corn field; conditions: for Post-emergence weed control effect, Green bristlegrass: 150 g a.i./ha, after treatment
Method: as §10, §2, §3, §4, §5, §6, §7, §8, §9

Solanum nigrum = test: Field test for weed control in a corn field; conditions: for Post-emergence weed control effect, Solanum nigrum: 150 g a.i./ha, 30 days after treatment
Method: as §10, §2, §3, §4, §5, §6, §7, §8, §9

Acalypha australis = test: Field test for weed control in a corn field; conditions: for Post-emergence weed control effect, Acalypha australis: 150 g a.i./ha, after treatment
Method: as §10, §2, §3, §4, §5, §6, §7, §8, §9

goosegrass = test: Field test for weed control in a corn field; conditions: for Post-emergence weed control effect, Goose grass: 150 g a.i./ha, after treatment
Method: as §10, §2, §3, §4, §5, §6, §7, §8, §9

Chenopodium album = test: Field test for weed control in a corn field; conditions: for Post-emergence weed control effect, Chenopodium album: 150 g a.i./ha, after treatment
Method: as §10, §2, §3, §4, §5, §6, §7, §8, §9

Barnyard grass [4] = test: Field test for weed control in a corn field; conditions: for Post-emergence weed control effect, Barnyard grass: 150 g a.i./ha, 30 days after treatment
Method: as §10, §2, §3, §4, §5, §6, §7, §8, §9

Digitaria sanguinalis [5] = test: Field test for weed control in a corn field; conditions: for Post-emergence weed control effect, Digitaria sanguinalis: 150 g a.i./ha, after treatment
Method: as §10, §2, §3, §4, §5, §6, §7, §8, §9

Portulaca oleracea = test: Field test for weed control in a corn field; conditions: for Post-emergence weed control effect, Portulaca oleracea: 150 g a.i./ha, after treatment
Method: as §10, §2, §3, §4, §5, §6, §7, §8, §9

nutgrass flatsedge = test: Field test for weed control in a corn field; conditions: for Post-emergence weed control effect, Nutgrass flatsedge: 150 g a.i./ha, after treatment
Method: as §10, §2, §3, §4, §5, §6, §7, §8, §9

Convolvulus arvensis = test: Field test for weed control in a corn field; conditions: for Post-emergence weed control effect, Convolvulus arvensis: 150 g a.i./ha, after treatment
Method: as §10, §2, §3, §4, §5, §6, §7, §8, §9

green bristlegrass [6] = test: Herbicidal activity test for indoor pre-emergence soil treatment; parameters: key: level 1-9; higher = more weed remaining vs blank control; conditions: 150 g a.i./ha, visual inspection 21 days after treatment
Method: as §1, §2, §3, §4, §5, §6, §7, §8, §9

Piemarker [7] = test: as above; parameters: key: level 1-9; higher = more weed remaining vs blank control; conditions: 150 g a.i./ha, visual inspection 21 days after treatment
Method: as §1, §2, §3, §4, §5, §6, §7, §8, §9

Barnyard grass [8] = test: as above; parameters: key: level 1-9; higher = more weed remaining vs blank control; conditions: 150 g a.i./ha, visual inspection 21 days after treatment
Method: as §1, §2, §3, §4, §5, §6, §7, §8, §9

Amaranthus retroflexus [9] = test: Herbicidal activity test for indoor post-emergence spraying on stems and leaves; parameters: key: grade level by weed remaining vs blank control, e.g. 5 = 10.1-15%; conditions: 150 g a.i./ha, visual inspection 21 days after treatment
Method: (§11) The post-emergence herbicidal activity test was performed with some of the N-benzylbenzamide-based compounds of general formula I or II with reference to the method of NY/T 1155.4-2006. […] After the sowing, the weed was moved to a greenhouse for regular cultivation. […] Then, the results were investigated by visual inspection 21 days after the treatments. […] Level 5: equivalent to 10.1 to 15% of the weed in the blank control area; Level 6: equivalent to 15.1 to 25% of the weed in the blank control area; Level 7: equivalent to 25.1 to 35% of the weed in the blank control area; Level 8: equivalent to 35.1 to 67.5% of the weed in the blank control area; and […]

green bristlegrass [10] = test: as above; parameters: key: grade level by weed remaining vs blank control, e.g. 5 = 10.1-15%; conditions: 150 g a.i./ha, visual inspection 21 days after treatment
Method: as §11

Humulus scandens [11] = test: as above; parameters: key: grade level by weed remaining vs blank control, e.g. 5 = 10.1-15%; conditions: 150 g a.i./ha, visual inspection 21 days after treatment
Method: as §11

Piemarker [12] = test: as above; parameters: key: grade level by weed remaining vs blank control, e.g. 5 = 10.1-15%; conditions: 150 g a.i./ha, visual inspection 21 days after treatment
Method: as §11

Barnyard grass [13] = test: as above; parameters: key: grade level by weed remaining vs blank control, e.g. 5 = 10.1-15%; conditions: 150 g a.i./ha, visual inspection 21 days after treatment
Method: as §11

Digitaria sanguinalis [14] = test: as above; parameters: key: grade level by weed remaining vs blank control, e.g. 5 = 10.1-15%; conditions: 150 g a.i./ha, visual inspection 21 days after treatment
Method: as §11

Amaranthus retroflexus [15] = test: Herbicidal activity test for indoor pre-emergence soil treatment; parameters: key: 1-9 levels; higher = more weed remaining vs blank control; conditions: 150 g a.i./ha, visual inspection 21 days after treatment
Method: as §1, §2, §3, §4, §5, §6, §7, §8, §9

Digitaria sanguinalis [16] = test: as above; parameters: key: 1-9 levels; higher = more weed remaining vs blank control; conditions: 150 g a.i./ha, visual inspection 21 days after treatment
Method: as §1, §2, §3, §4, §5, §6, §7, §8, §9

Cyperaceae = test: Post-emergence herbicidal activity test in a paddy field; parameters: key: level scale; higher level = more weed left vs blank control; conditions: 150 g a.i./ha (penoxsulam control 250 g(a.i.)/h)
Method: (§12) The post-emergence herbicidal activity test was performed in a paddy field with some of the N-benzylbenzamide-based compounds of general formula I or II with reference to the method of GB/T 17980.40-2000. […] Spray treatments were performed in the stage where 4 leaves to 5 leaves were grown for the rice seedlings which was about 1 month after the sowing. Representative compounds in the examples were used to prepare emulsifiable concentrates (10%), and spray treatments were performed with the concentrates in water at a dosage of 150 g(a.i.)/ha, and repeated 4 times for each treatment, and the area was 50 m^2. 25 g/L of penoxsulam suspension was used as a control agent and applied at a dosage of 250 g(a.i.)/h. The results were investigated by a value estimating survey method 15 days and 30 days after the treatments. The relative weed population quantities were estimated by comparing each agent treated area with an adjacent blank control area, and the results of which were investigated with the following grading standard method using the overall coverage of the weed population as an indicator.
as §2, §3, §4, §5, §6, §7, §8, §9

Broadleaf weed = test: as above; parameters: key: level scale; higher level = more weed left vs blank control; conditions: 150 g a.i./ha (penoxsulam control 250 g(a.i.)/h)
Method: as §12, §2, §3, §4, §5, §6, §7, §8, §9

Gramineae = test: as above; parameters: key: level scale; higher level = more weed left vs blank control; conditions: 150 g a.i./ha (penoxsulam control 250 g(a.i.)/h)
Method: as §12, §2, §3, §4, §5, §6, §7, §8, §9

[17] = 150 g(a.i.)/ha, 21 days after treatments

Row | SMILES | Herbicidal Activity Humulus scandens (Humulus scandens [1]) | Post-emergence weed control effect, Amaranthus retroflexus (Amaranthus retroflexus [2]) | Post-emergence weed control effect, Green bristlegrass (green bristlegrass [3]) | Post-emergence weed control effect, Solanum nigrum (Solanum nigrum) | Post-emergence weed control effect, Acalypha australis (Acalypha australis) | Post-emergence weed control effect, Goose grass (goosegrass) | Post-emergence weed control effect, Chenopodium album (Chenopodium album) | Post-emergence weed control effect, Barnyard grass (Barnyard grass [4]) | Post-emergence weed control effect, Digitaria sanguinalis (Digitaria sanguinalis [5]) | Post-emergence weed control effect, Portulaca oleracea (Portulaca oleracea) | Post-emergence weed control effect, Nutgrass flatsedge (nutgrass flatsedge) | Post-emergence weed control effect, Convolvulus arvensis (Convolvulus arvensis) | Herbicidal Activity Green bristlegrass (green bristlegrass [6]) | Herbicidal Activity Piemarker (Piemarker [7]) | Herbicidal Activity Barnyard grass (Barnyard grass [8]) | Herbicidal Activity Amaranthus retroflexus (Amaranthus retroflexus [9]) | Herbicidal Activity Green bristlegrass (green bristlegrass [10]) | Herbicidal Activity Humulus scandens (Humulus scandens [11]) | Herbicidal Activity Piemarker (Piemarker [12]) | Herbicidal Activity Barnyard grass (Barnyard grass [13]) | other results
1 | COc1ccccc1C(=O)NCc1ccc(F)cc1 [Compound A02] | 4 (equivalent to 5.1 to 10% of the weed in the blank control area) | 1 | 1 | 1 | 1 | 1 | 1 | 1 | 1 | 1 | 1 | 1 | 2 (equivalent to 0 to 2.5% of the weed in the blank control area) | 2 (equivalent to 0 to 2.5% of the weed in the blank control area) | 1 | 1 | 2 (equivalent to 0 to 2.5% of the weed in the blank control area) | 1 | 1 | 1 | controlling effect on Amaranthus retroflexus (Amaranthus retroflexus [2]; [17]): 1; controlling effect on green bristlegrass (green bristlegrass [3]; [17]): 1; controlling effect on Solanum nigrum (Solanum nigrum; [17]): 1; controlling effect on Acalypha australis (Acalypha australis; [17]): 1; controlling effect on goosegrass (goosegrass; [17]): 1; controlling effect on Chenopodium album (Chenopodium album; [17]): 1; controlling effect on barnyard grass (Barnyard grass [4]; [17]): 1; controlling effect on Digitaria sanguinalis (Digitaria sanguinalis [5]; [17]): 1; controlling effect on Portulaca oleracea (Portulaca oleracea; [17]): 1; controlling effect on nutgrass flatsedge (nutgrass flatsedge; [17]): 1; controlling effect on Convolvulus arvensis (Convolvulus arvensis; [17]): 1; Herbicidal Activity Digitaria sanguinalis (Digitaria sanguinalis [14]): 1; Herbicidal Activity Amaranthus retroflexus (Amaranthus retroflexus [15]): 3 (equivalent to 2.6 to 5% of the weed in the blank control area); Herbicidal Activity Digitaria sanguinalis (Digitaria sanguinalis [16]): 1; Herbicidal activity 15 days after treatment Cyperaceae (Cyperaceae): 1; Herbicidal activity 30 days after treatment Cyperaceae (Cyperaceae): 1; Herbicidal activity 15 days after treatment Broadleaf weed (Broadleaf weed): 1; Herbicidal activity 30 days after treatment Broadleaf weed (Broadleaf weed): 1; Herbicidal activity 15 days after treatment Gramineae (Gramineae): 1; Herbicidal activity 30 days after treatment Gramineae (Gramineae): 1
2 | COc1ccccc1C(=O)NCc1cc(F)cc(F)c1 [Compound A03, N-(3,5 difluorobenzyl)-2-methoxybenzamide] | 2 (equivalent to 0 to 2.5% of the weed in the blank control area) | 1 | 2 (equivalent to 0 to 2.5% of the weed in the blank control area) | 1 | 2 (equivalent to 0 to 2.5% of the weed in the blank control area) | 2 (equivalent to 0 to 2.5% of the weed in the blank control area) | 1 | 1 | 1 | 1 | 2 (equivalent to 0 to 2.5% of the weed in the blank control area) | 1 | 1 | 1 | 1 | 1 | 1 | 1 | 1 | 1 | Herbicidal Activity Digitaria sanguinalis (Digitaria sanguinalis [14]): 2 (equivalent to 0 to 2.5% of the weed in the blank control area); Herbicidal Activity Amaranthus retroflexus (Amaranthus retroflexus [15]): 1; Herbicidal Activity Digitaria sanguinalis (Digitaria sanguinalis [16]): 2 (equivalent to 0 to 2.5% of the weed in the blank control area); Herbicidal activity 15 days after treatment Cyperaceae (Cyperaceae): 2 (equivalent to 0 to 2.5% of the weed in the blank control area); Herbicidal activity 30 days after treatment Cyperaceae (Cyperaceae): 1; Herbicidal activity 15 days after treatment Broadleaf weed (Broadleaf weed): 1; Herbicidal activity 30 days after treatment Broadleaf weed (Broadleaf weed): 2 (equivalent to 0 to 2.5% of the weed in the blank control area); Herbicidal activity 15 days after treatment Gramineae (Gramineae): 2 (equivalent to 0 to 2.5% of the weed in the blank control area); Herbicidal activity 30 days after treatment Gramineae (Gramineae): 1
